Results reported in patent publication US20240360107A1, “AN EIF4A INHIBITOR WITH A NOVEL MECHANISM OF ACTION” (ARIZONA BOARD OF REGENTS ON BEHALF OF THE UNIVERSITY OF …, priority 2021, published 2024).
Entries after “also recorded” stand apart in the source; their conditions may differ. Where two headings read alike, the source gives them in different places.

Key:
eIF4A [1] = molecular target: T1, eIF4A (Homo sapiens, UniProt P60842); test: RNA-stimulated malachite green ATPase assay; assay type: biochemical; parameters: 6xHis with TEV protease site (N, cleaved yes); made in house; host or cells: E. coli BL21-CodonPlus; conditions: for IC50: 750 nM eIF4A, 250 μM ATP, 0.25 mg/mL Yeast RNA, 4 h at 37° C.
Procedure: Human eIF4A protein was produced recombinantly and a greater than 100,000-compound screen for inhibitors was completed using a malachite green ATPase assay (FIG. 11A). […] A stable mixture of yeast RNAs was added in an effort to improve this system and create a more biologically relevant eIF4A assay. eIF4A ATPase activity was accelerated without a statistically significant increase in the background signal in the presence of this RNA (FIG. 11B), and the new conditions gave excellent statistical parameters in a 384-well plate format (FIG. 11C).
(§1) ATPase assay. Recombinant WT or mutant eIF4A was added to a clear bottom 384 well plate (Greiner) in ATPase buffer (20 mM Tris pH 7.4, 80 mM KCl, 2.5 mM MgCl2, 1 mM DTT, 1% glycerol). Compounds were added and the plate was incubated at 37° C. for 20 min. ATP/RNA solution was added to afford a 20 μL per well reaction volume with 750 nM eIF4A, 250 μM ATP, and 0.25 mg/mL Yeast RNA (Sigma) for the initial screen and dose responses, and varying concentrations of ATP and RNA for the kinetic assays. The plate was incubated for 4 h at 37° C. for the initial screen and dose responses, and at seven time points (1 hour-7 hours) for kinetic assays. 0.04% v/v (final concentration) Tween-20 was added to a Malachite Green solution, and the Malachite Green (40 μL per well) was added. The solution was incubated for 5 minutes at room temperature and Absorbance at 660 nm was read on a SpectraMax iD5 plate reader (Molecular Devices).
Target sequence in this assay (P60842 whole entry): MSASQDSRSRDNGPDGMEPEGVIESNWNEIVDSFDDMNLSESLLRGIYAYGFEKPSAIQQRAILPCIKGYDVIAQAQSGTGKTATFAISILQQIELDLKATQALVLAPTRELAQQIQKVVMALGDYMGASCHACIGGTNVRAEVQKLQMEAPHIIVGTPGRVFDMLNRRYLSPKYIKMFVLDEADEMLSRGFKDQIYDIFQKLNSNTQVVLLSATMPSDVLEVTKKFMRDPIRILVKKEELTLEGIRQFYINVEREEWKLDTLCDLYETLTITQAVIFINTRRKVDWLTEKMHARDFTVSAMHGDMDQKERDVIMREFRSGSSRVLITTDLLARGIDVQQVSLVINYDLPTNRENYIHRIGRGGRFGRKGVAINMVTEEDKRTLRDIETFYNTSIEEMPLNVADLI

eIF4A [2] = molecular target: T1, eIF4A; test: kinetic testing using the malachite green assay (ATP and RNA titration); assay type: biochemical; parameters: 6xHis with TEV protease site (N, cleaved yes); made in house; host or cells: E. coli BL21-CodonPlus; conditions: for Alpha value for ATP / Ki / Alpha value for RNA: mixed-model inhibition fit
Procedure: (§2) ATP titration (left) used 250 μg/mL RNA. Data were fit using unbiased mixed-model inhibition in Prism 6.0. Alpha value for ATP is 0.424, indicating an ATP-uncompetitive inhibitor. Kiapp for ATP is 10.3 μM. RNA titration (right) used 250 μM ATP. […] Kiapp for RNA is 9.59 μM. Data shown are an average of 3 independent experiments.
as §2, with “was done with” for “used”, “0.514,” for “0.424,”, “ATP=4.79” for “ATP is 10.3”, “RNA=4.27” for “RNA is 9.59”
as §1
Target sequence in this assay (P60842 whole entry): as above

eIF4A [3] = molecular target: T1, eIF4A; test: Cellular Thermal Shift Assay (CETSA) in A549 cells; assay type: cell-based; parameters: endogenous in cells; host or cells: A549 cells; conditions: 90 min, 55° C., silvestrol 100 nM
Procedure: In CETSA, thermal stability of a protein is assessed by heating cells and then separating insoluble, aggregated, or denatured proteins from soluble proteins through supernatant/pellet fractionation. Levels of the protein of interest (eIF4A) remaining in the soluble fraction are then measured by western blot. The principle of CETSA is similar to differential scanning fluorimetry (DSF), in that thermal stability and solubility of a protein increases upon binding a ligand.
Cellular Thermal Shift Assay (CETSA). A549 cells were seeded into wells in 6-well plates and on the following day were exposed to 28 or silvestrol (100 nM) for 90 min. Cells were harvested, resuspended in 50 μL DMEM, and dispensed into thin-walled PCR tubes. Cells were subjected to 3 min of heat at 55° C. in a thermocycler (miniPCR). After heating, cells were left to cool for 3 min and then snap-frozen on dry ice. Cells were subjected to 3 rapid freeze thaws with 15 seconds of vortexing after each thaw. After the first thaw, 1 μL of a dissolved Pierce protease inhibitor tablet (ThermoFisher—A32963) was added to the cell lysate. Cell lysates were centrifuged at 20,000×g for 20 min. […] All immunoblot images were taken using the Azure 600 imaging system (Azure Biosystems) and analyzed using ImageJ 1.51s (NIH). […]
Target sequence in this assay (P60842 2-406): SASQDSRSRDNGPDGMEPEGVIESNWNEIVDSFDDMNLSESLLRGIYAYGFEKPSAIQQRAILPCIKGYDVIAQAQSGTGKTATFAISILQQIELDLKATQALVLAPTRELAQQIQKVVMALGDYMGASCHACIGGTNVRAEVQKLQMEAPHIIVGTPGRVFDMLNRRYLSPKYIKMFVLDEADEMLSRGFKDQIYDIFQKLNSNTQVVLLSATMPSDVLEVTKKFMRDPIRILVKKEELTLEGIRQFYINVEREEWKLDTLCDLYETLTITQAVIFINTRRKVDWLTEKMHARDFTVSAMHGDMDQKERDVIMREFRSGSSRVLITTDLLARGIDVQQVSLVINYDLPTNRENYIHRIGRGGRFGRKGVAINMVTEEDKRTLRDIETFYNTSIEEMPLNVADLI

[4] = ATP titration, 250 μg/mL RNA, read-out: Kiapp for ATP
[5] = RNA titration, 250 μM ATP, read-out: Kiapp for RNA

Row | SMILES | IC50 (eIF4A [1]) | mechanism of inhibition with respect to ATP (eIF4A [2]) | mechanism of inhibition with respect to RNA (eIF4A [2]) | Alpha value for ATP (eIF4A [2]; ATP titration, 250 μg/mL RNA) | Ki (eIF4A [2]; [4]) | Alpha value for RNA (eIF4A [2]; RNA titration, 250 μM ATP) | Ki (eIF4A [2]; [5]) | thermal stability of eIF4A in cells (CETSA) (eIF4A [3]) | potency in the eIF4A ATPase assay (in words) (eIF4A [1]; comparison within the series)
1 | CCCCc1ccc(-c2ccc(-c3cc(C(=O)O)c4cc(Br)ccc4n3)o2)cc1 [Compound 1, 6-bromo-2-(5-(4-butylphenyl)furan-2-yl)quinoline-4-carboxylic acid] | 26.6 ± 2.46 µM | uncompetitive with respect to ATP | RNA-competitive | 0.424 | 10.3 µM | 4.53×10^13 | 9.59 µM | – | –
2 | CCCCc1ccc(-c2ccc(-c3cc(C(=O)O)c4cc([N+](=O)[O-])ccc4n3)o2)cc1 [Compound 28, 2-(5-(4-butylphenyl)furan-2-yl)-6-nitroquinoline-4-carboxylic acid] | 8.6 ± 0.944 µM | ATP-uncompetitive | RNA-competitive | 0.514 | 4.79 µM | 4.52×10^21 | 4.27 µM | dose-dependent increase in thermal stability of eIF4A; also recorded: engages eIF4A in cells | most potent inhibitor of eIF4A ATPase activity; also recorded: over two-fold more potent than any other molecule previously produced in the series
